Data on four compounds can be found in paper PMC2568900 (Biochemistry, 2008).

One experiment has as its target PDHK2-wt (Rattus norvegicus, UniProt Q64536). Kind of experiment: ATP, ADP and DCA binding by quenching of intrinsic tryptophan fluorescence.
In experiment [1] the target is L2 binding to PDHK2-N247Q (Rattus norvegicus, UniProt Q64536, N255Q). Kind of experiment: GST-L2 pull-down. Conditions: PDHK2-N247Q (cannot bind nucleotides); nucleotides 10 mM each.
A further experiment concerns PDHK2-Y320F bound to L2. Kind of experiment: GST-L2 pull-down. Conditions: for effect on amount of kinase bound to L2: nucleotide 0.5 mM. Format: binding, rat.
The target in experiment [2] is T1, PDHK2-Y320F (Rattus norvegicus, UniProt Q64536, Y328F). Description: ATP, ADP and DCA binding by quenching of intrinsic tryptophan fluorescence. Conditions: for Qmax: quenching caused by the varied ligand.
Experiment [3] concerns the target T2, PDHK2-T302A (Rattus norvegicus, UniProt Q64536, T310A). Kind of experiment: Isothermal titration calorimetry of L2 binding. The settings on record: ITC, 10 mM ATP. In general terms: ITC needs no label: the signal is the heat of the interaction.
Experiment [4] concerns the target T2, PDHK2-T302A. Kind of experiment: ATP, ADP and DCA binding by quenching of intrinsic tryptophan fluorescence.
The next experiment concerns the target PDHK2-R250A (Rattus norvegicus, UniProt Q64536, R258A). The description is as above.
The target of experiment [5] is T1, PDHK2-Y320F. Description: Kinase activity assay. Format: biochemical. Conditions: standard phosphorylation assay.
Experiment [6] deals with T3, wild-type PDHK2 (Rattus norvegicus, UniProt Q64536). Kind of experiment: biochemical.
In experiment [7] the target is T3, wild-type PDHK2. Conditions: control, wide range of concentrations.
[8] abbreviates: PDHK2-wt, fixed ligand DCA (0.5 mM).
[9] abbreviates: PDHK2-wt, no fixed ligand, 25 °C.

“Also recorded” adds a separate entry of the source.

As a reminder, the Kd is a measure of binding affinity in units of concentration. High values mean weaker binding, low ones tighter binding. The term IC50 denotes the concentration that inhibits the measured activity by half. A high value points to a need for much substance.

With `Nc1ncnc2c1ncn2[C@@H]1O[C@H](COP(=O)(O)OP(=O)(O)O)[C@@H](O)[C@H]1O` [ADP], the Kd at PDHK2-wt (setting [8]) worked out at 2 ± 0.1 µM; on PDHK2-wt (setting [9]) it was 10.6 ± 0.5 µM; at PDHK2-Y320F [2] (fixed ligand DCA (0.5 mM)), 2.5 ± 0.2 µM; on PDHK2-Y320F [2] (no fixed ligand, 25 °C) it was 8.9 ± 0.1 µM. Besides, the nH on PDHK2-wt (setting [8]) was 2.2 ± 0.1; at PDHK2-Y320F [2] (fixed ligand DCA (0.5 mM)), 1.9 ± 0.1. Further, the Qmax on PDHK2-wt (PDHK2-wt, fixed ligand DCA (0.5 mM), quenching caused by the varied ligand) was 39 ± 1%; at PDHK2-Y320F [2] (fixed ligand DCA (0.5 mM)), 37 ± 1%. For the same compound, the “Qmax (extrapolated maximal quenching)” value on PDHK2-wt (PDHK2-wt, no fixed ligand) is listed as 31 ± 1%; at PDHK2-Y320F [2] (no fixed ligand), 24 ± 1%. Further, the “nH (Hill coefficient)” value was determined as 1.5 ± 0.2 on PDHK2-wt (PDHK2-wt, no fixed ligand) and 1.4 ± 0.1 at PDHK2-Y320F [2] (no fixed ligand). Also, on PDHK2-wt (wild-type PDHK2, 0.5 mM DCA), the “increase in affinity for ADP in the presence of DCA” value is “approximately 5 times”. For the same compound, the “effect on L2 binding” value in [1] is given as “did not exert any nonspecific effects”. The “effect on amount of kinase bound to L2” value with PDHK2-Y320F bound to L2 was “significant decrease”. Also, the “increase in affinity for ADP by DCA (factor)” value on PDHK2-Y320F [2] (0.5 mM DCA) was 3.5.

On to `Nc1ncnc2c1ncn2[C@@H]1O[C@H](COP(=O)(O)OP(=O)(O)OP(=O)(O)O)[C@@H](O)[C@H]1O` [ATP], for which the “Qmax (extrapolated maximal quenching)” value at PDHK2-wt (PDHK2-wt, no fixed ligand) is 37 ± 1%; on PDHK2-T302A [4] (no fixed ligand), 23 ± 1%; on PDHK2-R250A (no fixed ligand), 29 ± 1%; at PDHK2-Y320F [2] (no fixed ligand) it was 32 ± 1%. For the same compound, the “nH (Hill coefficient)” value at PDHK2-wt (PDHK2-wt, no fixed ligand) stood at 1.9 ± 0.1; at PDHK2-T302A [4] (no fixed ligand), 1.5 ± 0.1; at PDHK2-R250A (no fixed ligand), 1.0 ± 0.1; at PDHK2-Y320F [2] (no fixed ligand) it was 2.4 ± 0.1. Besides, the Kd was found to be 2.5 ± 0.4 µM on PDHK2-wt (setting [9]); 60 ± 1 µM at PDHK2-T302A [4] (no fixed ligand, 25 °C); 80 ± 1 µM on PDHK2-R250A (no fixed ligand, 25 °C); 1.7 ± 0.1 µM at PDHK2-Y320F [2] (no fixed ligand, 25 °C). The “effect on L2 binding” value at PDHK2-T302A [3] was “little, if any, effect”; in [1], “did not exert any nonspecific effects”. In addition, the figures for the “decrease in affinity relative to wild-type PDHK2” value on PDHK2-T302A [4] and on PDHK2-R250A were “more than 20 fold” and more than 30 fold, respectively. Further, in the experiment with PDHK2-Y320F bound to L2, the “effect on amount of kinase bound to L2” value is “significant decrease”.

Regarding `O=C(O)C(Cl)Cl` [DCA, dichloroacetate], the Kd at PDHK2-wt (Kd, PDHK2-wt, no fixed ligand, 25 °C) came to 226 ± 7 µM; at PDHK2-T302A [4] (Kd, fixed ligand ADP (50 μM)) it was 249 ± 9 µM; on PDHK2-T302A [4] (Kd, fixed ligand ADP (500 μM)), 103 ± 1 µM; at PDHK2-T302A [4] (Kd, no fixed ligand, 25 °C), 320 ± 20 µM; at PDHK2-R250A (Kd, fixed ligand ADP (50 μM)) it was 161 ± 4 µM; at PDHK2-R250A (Kd, fixed ligand ADP (500 μM)), 59 ± 1 µM. Also, the Kd turned out to be 312 ± 25 µM on PDHK2-R250A (Kd, no fixed ligand, 25 °C); 33 ± 1 µM on PDHK2-Y320F [2] (Kd, fixed ligand ADP (50 μM)); 292 ± 10 µM at PDHK2-Y320F [2] (Kd, no fixed ligand, 25 °C). In addition, the “effect on kinase activity” value at PDHK2-Y320F [5] was “neither of the mutant kinases displayed an effect of DCA that would significantly exceed that of sodium acetate; also recorded: did not display an appreciable inhibitory effect; also recorded: no appreciable effect”. The same compound registered an IC50 against wild-type PDHK2 [6] of approximately 690 µM. For the same compound, the “effect on L2 binding, added alone” value in the experiment on PDHK2-Y320F bound to L2 (DCA 1 mM alone) was “little, if any, influence”. In the experiment on PDHK2-Y320F bound to L2 (DCA 1 mM with 0.5 mM ATP or ADP), the “effect on L2 binding, in combination with ATP or ADP” value is on record as “potentiated the effects of adenine nucleotides”. The Qmax at PDHK2-Y320F [2] (fixed ligand ADP (50 μM)) came out at 29 ± 1%.

Consider `CC(=O)[O-].[Na+]` [sodium acetate], for which the “effect on kinase activity” value at wild-type PDHK2 [7] is “slight decrease in PDHK2 activity”.
